Laboratory results from the Deep4Chem optical property database.

Experiment: solvent given as SMILES

CCNc1cc2c(cc1C)C(c1ccccc1C(=O)O)=C1CCCC(/C=C/C3=[N+](C)c4ccc5ccccc5c4C3(C)C)=C1O2
absorption maximum (in CC#N): 716 nm | absorption maximum (in CCO): 708 nm | absorption maximum (in CO): 710 nm | absorption maximum (in ClC(Cl)Cl): 722 nm

COc1ccc2c3c(c4ccc(OC)cc4c2c1)C(C)(C)c1cc(-c2ccccc2)ccc1-3
absorption maximum (in C1CCCCC1): 389 nm

O=C1c2ccc3c4ccc5c6c(ccc(c7ccc(c2c37)C(=O)N1c1ccc(Cl)cc1)c64)C(=O)N(c1ccc(Cl)cc1)C5=O
absorption maximum (in CN(C)C=O): 525 nm

CCOC(=O)c1sc2nc(-c3ccccc3)c(C)c(C#N)c2c1N
absorption maximum (in C1COCCO1): 420 nm | absorption maximum (in CC#N): 412 nm | absorption maximum (in CCO): 423 nm | absorption maximum (in CCOC(C)=O): 419 nm | absorption maximum (in ClC(Cl)Cl): 416 nm | absorption maximum (in c1ccccc1): 418 nm

CCCC1(CCC)c2cc(-c3ccc(C(C)(C)C)cc3)ccc2-c2ccc(-c3ccc4c(c3)C(CCC)(CCC)c3cc(-c5ccc6c(c5)C(CCC)(CCC)c5cc(-c7ccc(C(C)(C)C)cc7)ccc5-6)ccc3-4)cc21
absorption maximum (in C1CCCCC1): 362 nm

COc1ccc(-c2cc3c(ccc(=O)n3C)s2)cc1
absorption maximum (in CC#N): 376 nm | absorption maximum (in ClCCl): 378 nm

Fc1cccc(C2=Cc3ccc4ccccc4[n+]3[B-](F)(F)O2)c1
absorption maximum (in ClC(Cl)Cl): 425 nm

CCCCCCn1c(=O)c2c3[nH]c4ccccc4oc3c3c(=O)n(CCCCCC)c(=O)c3c2c1=O
absorption maximum (in ClCCl): 454 nm

c1ccc(-c2nc(-c3ccccc3)nc(-c3ccc(-n4c5ccccc5c5c4c4ccccc4n5-c4ccccc4)cc3)n2)cc1
absorption maximum (in Cc1ccccc1): 398 nm

CCCCCCCCN1C(=O)c2ccc3c4c(-c5ccc6c(c5)c5ccccc5n6-c5ccccc5)cc5c6c(ccc(c7c(-c8ccc9c(c8)c8ccccc8n9-c8ccccc8)cc(c2c37)C1=O)c64)C(=O)N(CCCCCCCC)C5=O
absorption maximum (in ClC(Cl)Cl): 609 nm

CCC1=C(C)C2=C(C)c3c(C)c(-c4csc(N5CCOCC5)n4)c(C)n3[B-](F)(F)[N+]2=C1C
absorption maximum (in C1CCOC1): 524 nm | absorption maximum (in C1COCCO1): 524 nm | absorption maximum (in CC#N): 516 nm | absorption maximum (in CC(C)O): 518 nm | absorption maximum (in CCO): 516 nm | absorption maximum (in CCOC(C)=O): 520 nm | absorption maximum (in CN(C)C=O): 524 nm | absorption maximum (in CO): 514 nm | absorption maximum (in CS(C)=O): 521 nm | absorption maximum (in Cc1ccccc1): 527 nm | absorption maximum (in ClC(Cl)Cl): 523 nm | absorption maximum (in ClCCl): 522 nm

CC(=O)OCCN1C(=O)c2cccc3c(Oc4ccc(C=O)cc4)ccc(c23)C1=O
absorption maximum (in ClC(Cl)Cl): 353 nm

CC1(C)c2ccccc2N(c2cc(C#N)c(C#N)cc2N2c3ccccc3C(C)(C)c3ccccc32)c2ccccc21
absorption maximum (in c1ccc2c(c1)c1ccccc1n2-c1ccc(-c2ccc(-n3c4ccccc4c4ccccc43)cc2)cc1): 494 nm

CN(C)c1ccc2nc(-c3ccc(C(=O)OC[C@H](NC(=O)OC(C)(C)C)C(=O)OCc4ccccc4)cc3)sc2c1
absorption maximum (in C1CCCCC1): 390 nm | absorption maximum (in CC#N): 398 nm | absorption maximum (in CC(C)O): 397 nm | absorption maximum (in CO): 397 nm | absorption maximum (in CS(C)=O): 408 nm | absorption maximum (in ClC(Cl)Cl): 401 nm | absorption maximum (in c1ccccc1): 397 nm

Cc1ccc(-c2nc(-c3cccc(C#N)c3)[nH]c2-c2ccc(C)cc2)cc1
absorption maximum (in CO): 315 nm

N#CC1N=c2cc3c4c(cccc4c2=NC1C#N)C(c1ccccc1)=C(c1ccccc1)O3 (centres undefined)
absorption maximum (in ClCCl): 501 nm

Cc1ccccc1[B-]1(c2ccccc2C)n2nc(C(F)(F)F)cc2-c2c3ccccc3cc[n+]21
absorption maximum (in C1CCCCC1): 374 nm | absorption maximum (in Cc1ccccc1): 380 nm | absorption maximum (in ClCCl): 374 nm

Cc1cc(-c2nc(-c3ccccc3)nc(-c3ccccc3)n2)ccc1-n1c2ccccc2c2cc3c(cc21)C1c2ccccc2C3c2ccccc21
absorption maximum (in Cc1ccccc1): 364 nm

Clc1ccc(/C=C(\c2ccccc2)c2nc3ccccc3s2)cc1
absorption maximum (in C1CCCCC1): 340 nm | absorption maximum (in CO): 340 nm

CN1C(=CC2=C([O-])C(=Cc3oc4ccccc4[n+]3C)C2=C(C#N)C#N)C(C)(C)c2ccccc21
absorption maximum (in ClC(Cl)Cl): 655 nm

COC(=O)c1ccc(-c2nc3ccc(N(C)C)cc3s2)cc1
absorption maximum (in C1CCCCC1): 387 nm | absorption maximum (in CC#N): 392 nm | absorption maximum (in CC(C)O): 393 nm | absorption maximum (in CO): 396 nm | absorption maximum (in CS(C)=O): 405 nm | absorption maximum (in ClC(Cl)Cl): 395 nm | absorption maximum (in c1ccccc1): 394 nm

CCCCCCOc1cc(C=C2c3ccccc3-c3ccccc32)c(OCCCCCC)cc1C=C1c2ccccc2C=Cc2ccccc21
absorption maximum (in C1CCOC1): 397 nm

N#Cc1cc(-c2ccc(N3c4ccccc4Oc4ccccc43)cc2)c(-c2ccc(N3c4ccccc4Oc4ccccc43)cc2)cc1C#N
absorption maximum (in Cc1ccccc1): 406 nm

c1ccc(-c2nc(-c3ccccc3)nc(-c3ccc(-c4ccc5c(c4)C4(c6ccccc6-c6ccccc64)c4ccccc4N5c4ccccc4)cc3)n2)cc1
absorption maximum (in c1cc(-c2cccc(-n3c4ccccc4c4ccccc43)c2)cc(-n2c3ccccc3c3ccccc32)c1): 387.78 nm

NS(=O)(=O)c1ccc(N2N=C(c3ccc(O)cc3)CC2c2ccc([N+](=O)[O-])cc2)cc1 (centres undefined)
absorption maximum (in C1CCOC1): 353 nm | absorption maximum (in C1COCCO1): 353 nm | absorption maximum (in CC#N): 352 nm | absorption maximum (in CC(C)O): 352 nm | absorption maximum (in CCO): 352 nm | absorption maximum (in CCOC(C)=O): 352 nm | absorption maximum (in CN(C)C=O): 355 nm | absorption maximum (in CO): 351 nm | absorption maximum (in CS(C)=O): 358 nm | absorption maximum (in O): 354 nm

COc1ccc(-c2nc(-c3ccccc3)c(-c3ccccc3)[nH]2)cc1
absorption maximum (in CO): 305 nm

CC1(C)OB(c2cc3ccc4cccc5ccc(c2)c3c45)OC1(C)C
absorption maximum (in Cc1ccccc1): 385 nm

CC(C)(C)c1ccc(-c2c3ccccc3c3n2[B-](F)(F)[N+]2=Cc4c5ccccc5c(-c5ccc(C(C)(C)C)cc5)n4[B-](F)(F)[N+]2=C3)cc1
absorption maximum (in CC#N): 557 nm | absorption maximum (in CCCCCC): 568 nm | absorption maximum (in CN(C)C=O): 566 nm | absorption maximum (in Cc1ccccc1): 573 nm | absorption maximum (in ClCCl): 567 nm

CCCCCCCCCCCCOc1ccc(C2=C3C(=O)N(CC(OCC)OCC)C(c4ccc(OCCCCCCCCCCCC)c(OCCCCCCCCCCCC)c4)=C3C(=O)N2CC(OCC)OCC)cc1OCCCCCCCCCCCC
absorption maximum (in ClC(Cl)Cl): 496 nm

CNCCCN1c2ccccc2CCc2ccccc21
absorption maximum (in CC#N): 276 nm | absorption maximum (in CO): 276 nm | absorption maximum (in O): 275 nm

CC[n+]1c(-c2ccccc2)c2cc(NC(=O)NCC[NH3+])ccc2c2ccc(NC(=O)NCC[NH3+])cc21
absorption maximum (in O): 438 nm

c1cc2ccc1-c1ccc(cc1)-c1sc(c3c1OCCO3)-c1ccc(cc1)-c1ccc(cc1)-c1sc(c3c1OCCO3)-c1ccc(cc1)-c1ccc(cc1)-c1sc-2c2c1OCCO2
absorption maximum (in C1CCOC1): 371 nm

Cc1ccc2c(c1)C(=O)c1ccncc1-2
absorption maximum (in CC#N): 408.95 nm | absorption maximum (in CCCCCC): 408.95 nm

CN(C)c1nc(N(C)C)c2nc(C#N)n(Cc3ccccc3)c2n1
absorption maximum (in C1COCCO1): 345 nm | absorption maximum (in CC#N): 344 nm | absorption maximum (in CO): 342 nm | absorption maximum (in ClCCl): 348 nm

c1cc2ccc1-c1ccc(cc1)-c1ccc(s1)-c1ccc(cc1)-c1ccc(cc1)-c1ccc(s1)-c1ccc(cc1)-c1ccc(cc1)-c1ccc-2s1
absorption maximum (in C1CCOC1): 346 nm

Cc1cc(C)c(C)c(-c2ccc3cc(C)c(=O)oc3c2)c1C
absorption maximum (in C1CCCCC1): 312 nm | absorption maximum (in CC#N): 314 nm | absorption maximum (in CO): 315 nm

CC1=CC(C)=[N+]2C1=Cc1cccn1[B-]2(F)F
absorption maximum (in CCCCCC): 493 nm | absorption maximum (in CO): 493 nm | absorption maximum (in ClCCl): 498 nm

CCCN1c2ccccc2Sc2cc(/C=C\c3cc(=O)oc4cc(O)ccc34)ccc21
absorption maximum (in ClC(Cl)Cl): 422 nm

CN1/C(=C/C=C(/C=C/c2sc3ccccc3[n+]2C)c2cccc(C(F)(F)F)c2)Sc2ccccc21
absorption maximum (in CCO): 645 nm | absorption maximum (in CO): 642 nm | absorption maximum (in CS(C)=O): 653 nm | absorption maximum (in O): 639 nm

CCCCCCCCOc1ccc(C2=C(c3ccc(OCCCCCCCC)cc3)C(C)(C)c3ccccc32)cc1
absorption maximum (in C1CCCCC1): 281 nm

C[Si](C)(C)[Si](C)(C)c1ccc2cc3ccccc3cc2c1
absorption maximum (in C1CCCCC1): 382.68 nm

Brc1cnc(-c2ccncc2)s1
absorption maximum (in CO): 306 nm

CC(C)(C)NC(=O)c1ccc(-c2cc3ccccc3s2)c2ccc3c4ccccc4c4ccccc4c3c12
absorption maximum (in ClCCl): 350 nm

CC(C)c1ccc(-c2nc(-c3ccccc3)c3ccccn23)cc1
absorption maximum (in CC#N): 380 nm

CN1C(=CC2=C([O-])C(=O)C2=C(C#N)C#N)Sc2ccccc21
absorption maximum (in CCO): 481 nm

CCCCCCCCC1(CCCCCCCC)c2cc(C=O)ccc2-c2ccc(/C=C/c3ccc(N(c4ccccc4)c4ccccc4)cc3)cc21
absorption maximum (in C1CCOC1): 406 nm | absorption maximum (in C1COCCO1): 411 nm | absorption maximum (in CC#N): 406 nm | absorption maximum (in CC(C)=O): 409 nm | absorption maximum (in CCCCCC): 405 nm | absorption maximum (in CCOC(C)=O): 409 nm | absorption maximum (in CN(C)C=O): 410 nm | absorption maximum (in CS(C)=O): 408 nm | absorption maximum (in Cc1ccccc1): 411 nm | absorption maximum (in ClC(Cl)Cl): 409 nm | absorption maximum (in ClCCl): 411 nm

CN1c2ccccc2CCc2ccccc21
absorption maximum (in CC#N): 279 nm | absorption maximum (in CO): 278 nm

CC(=O)c1c(N[C@H](C(=O)O)C(C)C)c2ccc(N(C)C)cc2oc1=O
absorption maximum (in ClCCl): 371 nm

CC(C)(C)Nc1cc2sc3cc(NC(C)(C)C)c(F)cc3c(=O)c2cc1F
absorption maximum (in CCO): 373 nm

O=[N+]([O-])c1ccc[nH]1
absorption maximum (in CO): 336 nm | absorption maximum (in O): 350 nm

CN(C)c1ccc2c(c1)[Si](C)(C)C1=CC(=[N+](C)C)C=CC1=C2C#Cc1ccccc1
absorption maximum (in CO): 712 nm | absorption maximum (in O): 712 nm

Cc1cc(C2=C(c3c(C)sc(-c4ccc(-c5nc(-c6ccccc6)c(-c6ccccc6)[nH]5)cc4)c3C)C(F)(F)C(F)(F)C2(F)F)c(C)s1
absorption maximum (in C1CCOC1): 336 nm

Cc1cc2cc(C)c3c4ccccc4[nH]c3c2s1
absorption maximum (in ClCCl): 312 nm

COc1ccc(-c2c3ccccc3c3n2[B-](F)(F)[N+]2=Cc4c5ccccc5c(-c5ccc(OC)cc5)n4[B-](F)(F)[N+]2=C3)cc1
absorption maximum (in CC#N): 561 nm | absorption maximum (in CCCCCC): 573 nm | absorption maximum (in CN(C)C=O): 569 nm | absorption maximum (in Cc1ccccc1): 579 nm | absorption maximum (in ClCCl): 571 nm

C[n+]1cc2ccc3c[n+](C)c4ccccc4c3c2c2ccccc21
absorption maximum (in CC#N): 465 nm

Cc1ccc(C)c(C)c1
absorption maximum (in C1CCCCC1): 263.78 nm
